# Measured values reported in ChEMBL document CHEMBL5537159, “Discovery and SAR of JTE-151: A Novel RORγ Inhibitor for Clinical Development” (J Med Chem, 2024).
# Active and inactive are the calls of the source. No cut-off for these calls is given here.
# How the values were obtained:
# [1] = Apparent permeability in human Caco-2 cells at 25 umol/L incubated for 2 hrs by LC/MS/MS analysis; format: ADME, cell-based; details: dose 25 µmol/L
# [2] = AUCinfinity in CD(SD) rat at 10 mg/kg, po administered as single dose and measured after 24 hrs; format: ADME, organism-based; details: in vivo
# [3] = Oral bioavailability in CD(SD) rat at 10 mg/kg administered as single dose and measured after 24 hrs; format: ADME, organism-based; details: in vivo
# [4] = Volume of distribution at steady state in C57BL/6J mouse at 1 mg/kg, iv administered as single dose and measured after 24 hrs; format: ADME, organism-based; details: in vivo, read-out: Vdss
# [5] = Oral bioavailability in C57BL/6J mouse at 3 mg/kg administered as single dose and measured after 24 hrs; format: ADME, organism-based; details: in vivo
# [6] = Elimination half life in Beagle dog at 1 mg/kg, iv administered as single dose and measured after 24 hrs; format: ADME, organism-based, Canis lupus familiaris; details: in vivo, read-out: beta t1/2 (converted)
# [7] = MRT in Beagle dog at 3 mg/kg, po administered as single dose and measured after 24 hrs; format: ADME, organism-based, Canis lupus familiaris; details: in vivo
# [8] = Elimination half life in cynomolgus monkey at 1 mg/kg, iv administered as single dose and measured after 24 hrs; format: ADME, organism-based, Macaca fascicularis; details: in vivo, read-out: beta t1/2 (converted)
# [9] = Total body clearance in cynomolgus monkey at 1 mg/kg, iv administered as single dose and measured after 24 hrs; format: ADME, organism-based, Macaca fascicularis; details: in vivo
# [10] = Selectivity ratio of antagonist activity at human RORalpha to inhibition of RORgamma (unknown origin)
# [11] = Selectivity ratio of antagonist activity at human VDR to inhibition of RORgamma (unknown origin)
# [12] = Selectivity ratio of antagonist activity at human FXR to inhibition of RORgamma (unknown origin)
# [13] = Selectivity ratio of antagonist activity at human RARalpha to inhibition of RORgamma (unknown origin)
# [14] = Selectivity ratio of agonist activity at human AR to inhibition of RORgamma (unknown origin)
# [15] = Selectivity ratio of agonist activity at human PR to inhibition of RORgamma (unknown origin)
# [16] = Selectivity ratio of agonist activity at human FXR to inhibition of RORgamma (unknown origin)
# [17] = Selectivity ratio of agonist activity at human RXRalpha to inhibition of RORgamma (unknown origin)
# [18] = target: Adrenergic receptor alpha-2 (Rattus norvegicus, UniProt P22086+P19328+P22909); test: Inhibition of rat adrenergic alpha2 receptor; format: protein assay
# [19] = target: Beta-1 adrenergic receptor (Homo sapiens, UniProt P08588); test: Inhibition of human adrenergic beta1 receptor
# Chain of Beta-1 adrenergic receptor (P08588 whole entry): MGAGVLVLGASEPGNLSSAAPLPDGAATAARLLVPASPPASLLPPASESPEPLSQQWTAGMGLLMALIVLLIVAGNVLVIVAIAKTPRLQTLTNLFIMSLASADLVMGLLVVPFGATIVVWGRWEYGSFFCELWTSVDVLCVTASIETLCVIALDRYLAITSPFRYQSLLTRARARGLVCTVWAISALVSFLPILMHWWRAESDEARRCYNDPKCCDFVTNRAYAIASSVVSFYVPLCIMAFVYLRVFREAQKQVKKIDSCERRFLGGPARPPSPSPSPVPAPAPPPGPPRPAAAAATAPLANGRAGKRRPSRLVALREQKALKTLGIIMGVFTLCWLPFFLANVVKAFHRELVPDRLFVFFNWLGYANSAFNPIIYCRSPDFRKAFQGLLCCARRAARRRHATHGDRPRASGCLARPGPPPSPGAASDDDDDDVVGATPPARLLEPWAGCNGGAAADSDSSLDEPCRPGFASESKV
# [20] = target: Beta-3 adrenergic receptor (Homo sapiens, UniProt P13945); test: Inhibition of human adrenergic beta3 receptor
# Chain of Beta-3 adrenergic receptor (P13945 whole entry): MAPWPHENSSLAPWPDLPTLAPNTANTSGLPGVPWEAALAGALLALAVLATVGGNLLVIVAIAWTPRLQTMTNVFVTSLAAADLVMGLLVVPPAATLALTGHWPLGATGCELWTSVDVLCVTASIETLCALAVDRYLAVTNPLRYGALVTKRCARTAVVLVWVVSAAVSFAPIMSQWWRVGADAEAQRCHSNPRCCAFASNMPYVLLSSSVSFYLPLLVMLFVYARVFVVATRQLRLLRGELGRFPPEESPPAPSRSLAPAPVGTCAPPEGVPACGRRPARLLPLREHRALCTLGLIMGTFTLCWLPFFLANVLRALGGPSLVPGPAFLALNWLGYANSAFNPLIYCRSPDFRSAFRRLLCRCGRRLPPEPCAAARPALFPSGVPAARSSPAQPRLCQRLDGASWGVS
# Cannabinoid receptor 1 = Cannabinoid receptor 1 (Homo sapiens, UniProt P21554); test: Inhibition of human CB1 receptor
# Chain of Cannabinoid receptor 1 (P21554 whole entry): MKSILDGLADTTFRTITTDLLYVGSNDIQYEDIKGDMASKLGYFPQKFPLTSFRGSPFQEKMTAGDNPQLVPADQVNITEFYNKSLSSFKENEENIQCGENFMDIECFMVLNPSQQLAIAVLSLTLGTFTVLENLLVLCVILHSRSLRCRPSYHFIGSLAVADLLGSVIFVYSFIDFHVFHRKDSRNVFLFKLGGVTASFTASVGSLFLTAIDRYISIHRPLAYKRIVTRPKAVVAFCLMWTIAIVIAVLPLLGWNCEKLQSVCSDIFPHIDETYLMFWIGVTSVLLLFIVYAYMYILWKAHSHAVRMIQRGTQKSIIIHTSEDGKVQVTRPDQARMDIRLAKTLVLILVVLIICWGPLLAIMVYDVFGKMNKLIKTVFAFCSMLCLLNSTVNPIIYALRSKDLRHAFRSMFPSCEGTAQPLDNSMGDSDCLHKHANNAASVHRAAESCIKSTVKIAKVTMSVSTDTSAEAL
# D(1A) dopamine receptor = D(1A) dopamine receptor (Homo sapiens, UniProt P21728); test: Inhibition of human dopamine D1 receptor
# Chain of D(1A) dopamine receptor (P21728 whole entry): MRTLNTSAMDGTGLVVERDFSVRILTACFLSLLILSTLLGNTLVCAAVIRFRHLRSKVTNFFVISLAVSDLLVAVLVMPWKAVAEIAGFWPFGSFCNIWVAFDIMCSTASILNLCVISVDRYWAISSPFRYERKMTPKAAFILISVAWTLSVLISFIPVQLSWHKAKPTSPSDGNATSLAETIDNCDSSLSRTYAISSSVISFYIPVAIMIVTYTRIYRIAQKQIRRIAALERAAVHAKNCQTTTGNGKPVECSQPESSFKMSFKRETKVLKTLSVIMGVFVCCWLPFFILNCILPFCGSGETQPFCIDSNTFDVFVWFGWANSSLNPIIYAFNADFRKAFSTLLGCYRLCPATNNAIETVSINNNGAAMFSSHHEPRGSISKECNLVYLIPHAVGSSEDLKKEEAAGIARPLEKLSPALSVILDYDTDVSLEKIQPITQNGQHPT
# [21] = target: GABA-A receptor; anion channel; test: Inhibition of rat GABA-A receptor; format: protein-complex assay
# [22] = Inhibition of rat GABA-B receptor
# Histamine H2 receptor = Histamine H2 receptor (Homo sapiens, UniProt P25021); test: Inhibition of human histamine H2 receptor
# Chain of Histamine H2 receptor (P25021 whole entry): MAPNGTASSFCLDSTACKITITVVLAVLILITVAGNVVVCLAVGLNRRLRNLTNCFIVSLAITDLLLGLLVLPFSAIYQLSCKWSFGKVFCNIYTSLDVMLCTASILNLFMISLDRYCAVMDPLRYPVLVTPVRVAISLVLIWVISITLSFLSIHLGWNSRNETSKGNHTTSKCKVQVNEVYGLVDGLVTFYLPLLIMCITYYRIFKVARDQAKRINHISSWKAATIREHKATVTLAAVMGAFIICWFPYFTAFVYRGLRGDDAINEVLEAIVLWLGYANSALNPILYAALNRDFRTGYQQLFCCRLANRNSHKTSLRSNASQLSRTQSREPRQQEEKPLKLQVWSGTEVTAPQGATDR
# Histamine H3 receptor = Histamine H3 receptor (Homo sapiens, UniProt Q9Y5N1); test: Inhibition of human histamine H3 receptor
# Chain of Histamine H3 receptor (Q9Y5N1 whole entry): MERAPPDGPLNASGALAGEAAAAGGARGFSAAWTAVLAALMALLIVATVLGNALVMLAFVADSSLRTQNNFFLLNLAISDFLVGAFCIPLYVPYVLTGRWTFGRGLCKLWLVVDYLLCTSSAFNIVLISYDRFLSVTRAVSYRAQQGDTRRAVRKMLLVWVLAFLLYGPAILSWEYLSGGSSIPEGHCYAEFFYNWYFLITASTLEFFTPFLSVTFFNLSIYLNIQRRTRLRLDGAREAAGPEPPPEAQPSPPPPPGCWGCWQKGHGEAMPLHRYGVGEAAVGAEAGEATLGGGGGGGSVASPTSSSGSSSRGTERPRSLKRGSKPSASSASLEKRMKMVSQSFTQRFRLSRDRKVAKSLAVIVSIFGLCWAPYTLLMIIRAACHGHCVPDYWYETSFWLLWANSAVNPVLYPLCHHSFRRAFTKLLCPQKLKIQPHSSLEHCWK
# [23] = Inhibition of rat K+ ATP channel
# [24] = Inhibition of rat Muscarinic receptor
# [25] = Inhibition of rat opioid receptor
# [26] = target: 5-hydroxytryptamine receptor 2A (Homo sapiens, UniProt P28223); test: Inhibition of human 5-HT2A receptor
# Chain of 5-hydroxytryptamine receptor 2A (P28223 whole entry): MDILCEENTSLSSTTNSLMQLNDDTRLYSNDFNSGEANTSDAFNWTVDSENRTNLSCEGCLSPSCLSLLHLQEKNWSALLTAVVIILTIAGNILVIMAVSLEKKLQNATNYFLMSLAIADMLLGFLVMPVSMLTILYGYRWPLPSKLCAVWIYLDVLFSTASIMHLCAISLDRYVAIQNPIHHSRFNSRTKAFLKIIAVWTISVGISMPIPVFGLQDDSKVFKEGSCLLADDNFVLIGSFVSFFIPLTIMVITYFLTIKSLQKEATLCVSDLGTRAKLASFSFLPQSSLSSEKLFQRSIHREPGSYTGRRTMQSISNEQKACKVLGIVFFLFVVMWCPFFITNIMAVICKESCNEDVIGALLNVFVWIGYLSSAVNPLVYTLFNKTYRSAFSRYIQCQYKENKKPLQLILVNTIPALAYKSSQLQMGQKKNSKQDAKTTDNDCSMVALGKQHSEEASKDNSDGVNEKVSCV
# [27] = target: Amine oxidase [flavin-containing] A (Homo sapiens, UniProt P21397); test: Inhibition of human MAO-A
# Chain of Amine oxidase [flavin-containing] A (P21397 whole entry): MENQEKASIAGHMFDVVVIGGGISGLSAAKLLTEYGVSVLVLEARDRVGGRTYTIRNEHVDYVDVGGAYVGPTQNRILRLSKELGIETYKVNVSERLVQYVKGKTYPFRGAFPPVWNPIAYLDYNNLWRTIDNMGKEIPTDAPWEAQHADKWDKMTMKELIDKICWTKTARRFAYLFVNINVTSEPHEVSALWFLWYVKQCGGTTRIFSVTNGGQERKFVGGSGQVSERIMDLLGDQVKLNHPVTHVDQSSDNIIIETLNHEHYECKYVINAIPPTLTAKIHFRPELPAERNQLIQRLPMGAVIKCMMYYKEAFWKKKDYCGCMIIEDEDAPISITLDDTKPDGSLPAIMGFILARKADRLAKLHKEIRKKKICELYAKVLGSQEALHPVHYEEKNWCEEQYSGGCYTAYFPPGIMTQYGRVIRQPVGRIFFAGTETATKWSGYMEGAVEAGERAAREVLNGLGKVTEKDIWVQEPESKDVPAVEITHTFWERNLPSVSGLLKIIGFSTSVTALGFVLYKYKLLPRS
# Cytochrome P450 2C19 = Cytochrome P450 2C19 (Homo sapiens, UniProt P33261); test: Inhibition of CYP2C19 in human liver microsomes; format: ADME, Microsome
# Chain of Cytochrome P450 2C19 (P33261 whole entry, the tested form may be a part): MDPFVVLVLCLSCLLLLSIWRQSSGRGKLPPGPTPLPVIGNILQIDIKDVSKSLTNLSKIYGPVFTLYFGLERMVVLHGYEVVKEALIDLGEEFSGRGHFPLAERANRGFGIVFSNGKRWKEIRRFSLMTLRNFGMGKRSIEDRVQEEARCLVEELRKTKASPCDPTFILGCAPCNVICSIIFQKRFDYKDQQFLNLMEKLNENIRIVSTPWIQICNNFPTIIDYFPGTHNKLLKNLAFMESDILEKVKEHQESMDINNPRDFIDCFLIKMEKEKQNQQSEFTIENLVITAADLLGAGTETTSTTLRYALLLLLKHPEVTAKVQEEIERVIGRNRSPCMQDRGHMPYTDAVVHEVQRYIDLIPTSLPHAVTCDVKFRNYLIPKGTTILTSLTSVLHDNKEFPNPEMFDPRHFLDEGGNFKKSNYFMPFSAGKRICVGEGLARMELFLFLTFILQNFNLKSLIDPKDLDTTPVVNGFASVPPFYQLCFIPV
# Mus musculus [28] = test: (§1) Anti-inflammatory activity in complete Freund's adjuvant/MOG (35 to 55 residues)/pertussis toxin-induced experimental autoimmune encephalomyelitis C57BL/6 mouse model assessed as reduction in paralysis by measuring reduction in EAE clinical score at 3 to 10 mg/kg, po administered once daily for 17 days and measured on day 18; format: functional, organism-based; details: dose 3-10 mg/kg, time 18.0 day
# Mus musculus [29] = test: as §1, with “Th17 cell differentiation” for “paralysis”, “number of Th17 cells in spinal cords” for “EAE clinical score”, “18 by flow cytometry analysis” for “18”; format: functional, organism-based; details: dose 3-10 mg/kg, time 18.0 day
# [30] = Toxicity in CHL cells assessed as chromosomal aberration at 60 to 80 ug/ml incubated for 6 hrs in absence of S9 fraction; format: cell-based, Cricetulus griseus; details: chinese hamster, dose 60-80 µg/ml
# [31] = Toxicity in Sprague-Dawley rat assessed as development-limiting toxicity at 30 to 300 mg/kg, po administered once daily and measured on day 1,14 and 27; format: organism-based; details: in vivo, 648 h, dose 30-300 mg/kg, time 27 day
# [32] = Cmax in human at 30 […], po administered as single dose and measured upto 144 hrs; format: ADME, organism-based; details: in vivo
# [33] = Cmax in human at 200 […], po administered as single dose and measured upto 144 hrs; format: ADME, organism-based; details: in vivo
# [34] = Cmax in human at 400 […], po administered as single dose and measured upto 144 hrs; format: ADME, organism-based; details: in vivo
# [35] = Cmax in human at 600 […], po administered as single dose and measured upto 144 hrs; format: ADME, organism-based; details: in vivo
# [36] = Tmax in human at 400 […], po administered as single dose and measured upto 144 hrs; format: ADME, organism-based; details: in vivo
# [37] = Tmax in human at 600 […], po administered as single dose and measured upto 144 hrs; format: ADME, organism-based; details: in vivo
# [38] = AUClast in human at 30 mg/kg, po administered as single dose and measured upto 144 hrs; format: ADME, organism-based; details: in vivo
# [39] = AUClast in human at 60 mg/kg, po administered as single dose and measured upto 144 hrs; format: ADME, organism-based; details: in vivo
# [40] = AUClast in human at 100 […], po administered as single dose and measured upto 144 hrs; format: ADME, organism-based; details: in vivo
# [41] = AUClast in human at 200 mg/kg, po administered as single dose and measured upto 144 hrs; format: ADME, organism-based; details: in vivo
# [42] = AUClast in human at 1000 mg/kg, po administered as single dose and measured upto 144 hrs; format: ADME, organism-based; details: in vivo
# [43] = Elimination half life in human at 60 mg/kg, po administered as single dose and measured upto 144 hrs; format: ADME, organism-based; details: in vivo, read-out: beta t1/2 (converted)
# [44] = Elimination half life in human at 100 […], po administered as single dose and measured upto 144 hrs; format: ADME, organism-based; details: in vivo, read-out: beta t1/2 (converted)
# [45] = Elimination half life in human at 200 mg/kg, po administered as single dose and measured upto 144 hrs; format: ADME, organism-based; details: in vivo, read-out: beta t1/2 (converted)
# [46] = Elimination half life in human at 600 mg/kg, po administered as single dose and measured upto 144 hrs; format: ADME, organism-based; details: in vivo, read-out: beta t1/2 (converted)
# [47] = Toxicity in Beagle dog assessed as development-limiting toxicity at 100 mg/kg, po bid administered 2 doses at 4 hrs interval and measured on day 1,14 and 28; format: organism-based, Canis lupus familiaris; details: in vivo, 672 h, time 28 day
smiles,measurement,setting,value
Cc1ccc(NC(=O)C[C@H](CCC(=O)O)c2noc([C@H]3C[C@@H](CC(C)(C)C)C3)c2C2CC2)c(Cl)c1,"Papp at 2 h, 25 µM",[1],22.3 ×10⁻⁶ cm/s
same,AUC(0-inf),[2],191 µM·h
same,bioavailability,[3],106%
same,Vd,[4],0.16 L/kg
same,bioavailability,[5],98%
same,half-life,[6],5.5 h
same,MRT,[7],6.6 h
same,half-life,[8],5.9 h
same,clearance,[9],3.17 mL/min/kg
same,Selectivity ratio,[10],> 100
same,Selectivity ratio,[11],> 100
same,Selectivity ratio,[12],> 100
same,Selectivity ratio,[13],> 100
same,Selectivity ratio,[14],> 100
same,Selectivity ratio,[15],> 100
same,Selectivity ratio,[16],> 100
same,Selectivity ratio,[17],> 100
same,IC50,[18],> 10 µM
same,IC50,[19],> 10 µM
same,IC50,[20],> 10 µM
same,IC50,Cannabinoid receptor 1,> 10 µM
same,IC50,D(1A) dopamine receptor,6.2 µM
same,IC50,[21],> 10 µM
same,IC50,[22],> 10 µM
same,IC50,Histamine H2 receptor,> 10 µM
same,IC50,Histamine H3 receptor,> 10 µM
same,IC50,[23],> 10 µM
same,IC50,[24],> 10 µM
same,IC50,[25],> 10 µM
same,IC50,[26],> 10 µM
same,IC50,[27],> 10 µM
same,IC50,Cytochrome P450 2C19,> 10 µM
same,Activity,Mus musculus [28],Active
same,Activity,Mus musculus [29],Active
same,Activity,[30],Non-Toxic
same,Activity,[31],Non-Toxic
same,Cmax,[32],1220 ng/mL
same,Cmax,[33],8790 ng/mL
same,Cmax,[34],17500 ng/mL
same,Cmax,[35],26400 ng/mL
same,Tmax,[36],3 h
same,Tmax,[37],3 h
same,AUC(0-t) at 144 h,[38],6030 ng·h/mL
same,AUC(0-t) at 144 h,[39],11000 ng·h/mL
same,AUC(0-t) at 144 h,[40],21200 ng·h/mL
same,AUC(0-t) at 144 h,[41],49500 ng·h/mL
same,AUC(0-t) at 144 h,[42],241000 ng·h/mL
same,half-life,[43],5.49 h
same,half-life,[44],13.2 h
same,half-life,[45],12.4 h
same,half-life,[46],7.33 h
same,Activity,[47],Non-Toxic
